# Measured values taken from ChEMBL document CHEMBL1137799, “Bisbenzylisoquinoline alkaloids” (J Nat Prod, 1991).
# Key:
# [1] = Inhibition of formyl-methionyl-leucyl-phenylalanine induced superoxide generation in PMNC; assay type: functional
# Plasmodium falciparum = test: Antimalarial activity against Plasmodium falciparum; assay type: functional, organism-based
# [2] = Half life in Wistar rat at 5 mg/kg, iv and po; assay type: ADME, organism-based; set-up: dose 5 mg/kg, route oral; conditions: in vivo
# [3] = Protein binding in Wistar rat serum at 5 mg/kg, iv and po; assay type: ADME, organism-based; set-up: dose 5 mg/kg, route oral; conditions: read-out: PB (converted)
# [4] = Drug absorption in digestive tract of Wistar rat at 5 mg/kg, iv and po; assay type: ADME, organism-based; set-up: dose 5 mg/kg, route oral; conditions: in vivo, read-out: Drug uptake
# [5] = Half life in Wistar rat testis at 5 mg/kg, iv and po; assay type: ADME, organism-based; set-up: dose 5 mg/kg, route oral
# [6] = biological target: Muscarinic acetylcholine receptor; test: Displacement of [3H]QNB from rat brain muscarinic receptor
# Homo sapiens = test: Increase in N-methyl-curine-induced neuromuscular blocking in patient during endotracheal intubation administered through inhalation; assay type: functional, organism-based
# [7] = Toxicity in ip dosed rat; assay type: organism-based; conditions: in vivo
# Mus musculus = species on record: Mus musculus; test: Inhibition of 12-O-tetradecanoylphorbol-13-acetate-induced carcinogenic activity in mouse ear at 2 mg, applied locally; assay type: functional
# [8] = Inhibition of phorbol myristate acetate-induced superoxide anion production in mouse peritoneal exudate cells at 50 ug/ml; assay type: functional
# [9] = Inhibition of phorbol myristate acetate-induced superoxide anion production in mouse peritoneal exudate cells at 5 ug/ml; assay type: functional
# [10] = Inhibition of calmodulin-stimulated Ca2+/Mg2+ ATPase activity in human erythrocyte membrane; assay type: cell membranes
# [11] = biological target: Dual specificity calcium/calmodulin-dependent 3',5'-cyclic nucleotide phosphodiesterase 1A (Homo sapiens, UniProt P54750); test: Inhibition of calmodulin-dependent phosphodiesterase
# Chain of Dual specificity calcium/calmodulin-dependent 3',5'-cyclic nucleotide phosphodiesterase 1A (P54750 whole entry): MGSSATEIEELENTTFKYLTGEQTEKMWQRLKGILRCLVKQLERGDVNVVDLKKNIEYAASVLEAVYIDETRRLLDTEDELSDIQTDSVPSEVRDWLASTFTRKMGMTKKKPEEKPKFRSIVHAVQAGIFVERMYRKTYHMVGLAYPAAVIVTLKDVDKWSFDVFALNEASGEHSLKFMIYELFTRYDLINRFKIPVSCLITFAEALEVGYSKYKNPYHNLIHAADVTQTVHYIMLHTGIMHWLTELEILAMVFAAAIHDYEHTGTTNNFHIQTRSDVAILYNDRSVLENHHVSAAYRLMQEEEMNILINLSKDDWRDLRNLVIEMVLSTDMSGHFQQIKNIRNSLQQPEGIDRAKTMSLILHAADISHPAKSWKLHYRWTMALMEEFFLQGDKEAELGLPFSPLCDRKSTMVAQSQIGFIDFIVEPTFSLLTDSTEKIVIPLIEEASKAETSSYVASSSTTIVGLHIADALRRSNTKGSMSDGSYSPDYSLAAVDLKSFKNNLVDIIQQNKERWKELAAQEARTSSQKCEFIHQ
Compound,inhibition (INH) [1],IC50 (Plasmodium falciparum),other results
COc1ccc2cc1Oc1ccc(cc1)C[C@H]1c3cc(c(OC)cc3CCN1C)Oc1c(O)c(OC)cc3c1[C@H](C2)N(C)CC3 [FANGCHINOLINE],82.4%,,
COc1cc2c3cc1Oc1c(OC)c(OC)cc4c1[C@@H](Cc1ccc(O)c(c1)Oc1ccc(cc1)C[C@H]3N(C)CC2)N(C)CC4 [PYCNAMINE],,0.15 µg/mL,
COc1ccc(C[C@@H]2c3cc(Oc4cc(C[C@@H]5c6cc(O)c(OC)cc6CCN5C)ccc4O)c(OC)cc3CCN2C)cc1 [ISOLIENSININE],59.6%,,
COc1cc2c3cc1Oc1c(OC)c(OC)cc4c1C(=NCC4)Cc1ccc(cc1)Oc1cc(ccc1O)CC3N(C)CC2 (stereo unspecified) [HYPOEPISTEPHANINE],34.1%,,
COc1ccc2cc1Oc1ccc(cc1)C[C@H]1c3c(cc4c(c3Oc3cc5c(cc3OC)CCN(C)[C@@H]5C2)O[14CH2]O4)CCN1C,,,half-life [2]: 8 days; fraction unbound [3]: 0.26; Fa [4]: 70%; half-life [5]: 36 days
COc1c2cc3c(c1OC)CCN(C)[C@@H]3Cc1ccc(cc1)Oc1cc3c(c(OC)c1OC)CCN(C)[C@@H]3Cc1ccc(cc1)O2 [CYCLEANINE],36.2%,,
COc1ccc2cc1Oc1ccc(cc1)C[C@@H]1c3cc(c(OC)cc3CCN1C)Oc1c(OC)c(OC)cc3c1[C@@H](C2)N(C)CC3 [PHAEANTHINE],,1.43 µg/mL,
COc1cc2c3cc1Oc1c4c(cc5c1[C@H](Cc1ccc(cc1)Oc1cc(ccc1O)C[C@H]3N(C)CC2)N(C)CC5)OCO4 [CEPHARANOLINE],56%,,
COc1cc2c3c4c1Oc1cc5c(cc1O4)[C@H](Cc1ccc(O)c(c1)Oc1ccc(cc1)C[C@@H]3N(C)CC2)N(C)CC5 [COCSULINE],,15.6 µg/mL,
COc1ccc2cc1Oc1ccc(cc1)C[C@H]1c3cc(c(OC)cc3CCN1C)Oc1c(OC)c(OC)cc3c1[C@H](C2)N(C)CC3 [FANCHININ],,,Ki [6]: 7.3 ×10⁻⁸ M
FC(F)OC(F)(F)C(F)Cl (stereo unspecified),,,inhibition (Homo sapiens): Dose-dependent effect
COc1cc2c(cc1OC)[C@@H](Cc1ccc(Oc3cc(C[C@@H]4c5cc(OC)c(OC)cc5CCN4C)ccc3O)cc1)N(C)CC2 [DAURICINE],50.8%,,LD50 [7]: 205 mg/kg
COc1cc2c3cc1Oc1c(OC)c(OC)cc4c1[C@H](Cc1ccc(cc1)Oc1cc(ccc1O)C[C@H]3N(C)CC2)N(C)CC4 [AROMOLINE],63.1%,0.67 µg/mL,
COc1ccc2cc1Oc1ccc(cc1)C[C@H]1c3c(cc4c(c3Oc3cc5c(cc3OC)CCN(C)[C@@H]5C2)OCO4)CCN1C [CEPHARANTHINE],,,inhibition (INH) (Mus musculus): 78%; inhibition at 50 µg/mL [8]: 85%; inhibition at 5 µg/mL [9]: 34%
COc1cc2c3cc1Oc1c(O)c(OC)cc4c1[C@@H](Cc1ccc(O)c(c1)Oc1ccc(cc1)C[C@@H]3N(C)CC2)N(C)CC4 [OBAMEGINE],,0.51 µg/mL,
CCOCCCCOc1ccc2cc1Oc1ccc(cc1)C[C@H]1c3cc(c(OC)cc3CCN1C)Oc1c(OC)c(OC)cc3c1[C@@H](C2)N(C)CC3,,,IC50 [10]: 0.35 µM; IC50 [11]: 0.35 µM
COc1ccc2cc1Oc1ccc(cc1)C[C@H]1c3c(cc(OC)c(O)c3Oc3cc4c(cc3OC)CCN(C)[C@@H]4C2)CCN1C [HOMOAROMOLINE],67%,,
COc1ccc2cc1Oc1ccc(cc1)CC1NCCc3cc(O)c4c(c31)Oc1c(OC)cc3c(c1O4)[C@H](C2)N(C)CC3 (stereo partly specified),,1.1 µg/mL,
COc1cc2c3cc1Oc1c(OC)c(OC)cc4c1[C@@H](Cc1ccc(O)c(c1)Oc1ccc(cc1)C[C@@H]3N(C)CC2)N(C)CC4 [BERBAMINE],56.4%,,IC50 [10]: 60 µM; IC50 [11]: 22 µM; Ki [6]: 1.9 ×10⁻⁷ M
COc1ccc(C[C@@H]2c3cc(Oc4cc(C[C@@H]5c6cc(OC)c(OC)cc6CCN5C)ccc4O)c(OC)cc3CCN2C)cc1 [NEFERINE],63.6%,,
